Some test systems named below: SF-539 CNS; SNB-19 CNS; IGROV1 ovarian; SF-268 CNS; SF-295 CNS; SR leukemia; RPMI-8226 leukemia; M14 melanoma; HOP-92 NSCLC; K-562 leukemia; SN12C renal.
Assay in all cases: NCI anticancer screen, dose series, 48 h

Molecules are shown by their SMILES.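 Compound exposure: 48 hours, 5 concentrations, 96-well plates. TGI is the concentration that stops growth completely.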 Where only a bound is given, the exact number is not on record here.

For `CC1=NN(c2nc(N)nc(CC#N)n2)C(C)(C)C1`, the TGI in the assay on SF-539 CNS, in the assay with SNB-19 CNS, with IGROV1 ovarian, in the assay on SF-268 CNS, with SF-295 CNS and in the assay with SR leukemia was more than 100 µM throughout. Moreover, the TGI in the assay on RPMI-8226 leukemia, in the assay on M14 melanoma, in the assay on HOP-92 NSCLC and with K-562 leukemia was more than 100 µM in each case.

As for `S=C(c1c[nH]c2ccccc12)N1CCN(Cc2ccccc2)CC1`, the TGI is 32.9 µM in the assay on SF-539 CNS; 35.5 µM in the assay with SNB-19 CNS; 30.1 µM with SN12C renal; 26.2 µM with IGROV1 ovarian; 35.6 µM in the assay on SF-268 CNS; 29 µM in the assay with SF-295 CNS. Further, the TGI was 47.9 µM with SR leukemia, 51.9 µM in the assay with RPMI-8226 leukemia, 26.9 µM in the assay with M14 melanoma and more than 100 µM in the assay on K-562 leukemia.

As to `FC1C2=C(SC1(F)F)C1CCC2C1` (stereo not drawn), the TGI in the assay with SNB-19 CNS, with IGROV1 ovarian, in the assay with SF-295 CNS, with SR leukemia, with RPMI-8226 leukemia and with M14 melanoma was more than 100 µM in each case. For the same molecule, the TGI with HOP-92 NSCLC and in the assay on K-562 leukemia was more than 100 µM in each case.

For the molecule `Cc1noc(NC2=CC(=O)C(=O)c3ccccc32)c1C`, the TGI in the assay with SF-539 CNS was 14.1 µM; in the assay with SNB-19 CNS, more than 100 µM; with SN12C renal, 3.7 µM; in the assay on SF-268 CNS, more than 100 µM; with SF-295 CNS it was more than 100 µM; with SR leukemia it was more than 100 µM. Moreover, the TGI with RPMI-8226 leukemia was 36 µM; in the assay on M14 melanoma it was more than 100 µM; in the assay with HOP-92 NSCLC, 78.1 µM; in the assay with K-562 leukemia, 0.872 µM.

For the molecule `CN(c1ccccc1Cl)S(=O)(=O)c1ccc([N+](=O)[O-])cc1`, the TGI in the assay on SF-539 CNS, with SNB-19 CNS, in the assay with SN12C renal, in the assay with IGROV1 ovarian, in the assay on SF-268 CNS and with SF-295 CNS was more than 100 µM each time. Also, the TGI in the assay with SR leukemia, in the assay on RPMI-8226 leukemia, with M14 melanoma and with K-562 leukemia was more than 100 µM each time.

With `Cc1ccc2oc(=O)c(C(=O)Nc3nc(C45CC6CC(CC(C6)C4)C5)cs3)cc2c1`, the TGI with SF-539 CNS, with SNB-19 CNS, in the assay with SN12C renal, with IGROV1 ovarian, in the assay with SF-268 CNS and in the assay on SF-295 CNS was more than 100 µM throughout. Moreover, the TGI in the assay on SR leukemia, with RPMI-8226 leukemia, in the assay on HOP-92 NSCLC and in the assay on K-562 leukemia was more than 100 µM in each case.

For `COc1ccc(C2C3COc4ccccc4C3=NN2c2ccccc2)cc1` (stereo not drawn), the TGI in the assay with SF-539 CNS, with SNB-19 CNS, in the assay with IGROV1 ovarian, with SF-268 CNS, with SF-295 CNS and with SR leukemia was more than 100 µM in each case. Moreover, the TGI in the assay with RPMI-8226 leukemia, in the assay on M14 melanoma, with HOP-92 NSCLC and with K-562 leukemia was more than 100 µM each time.

Regarding `C=CCO[C@]1(CC=C)C(=O)C(=O)OC1C1COC(C)(C)O1` (stereo partly drawn), the TGI with SF-539 CNS, in the assay with SNB-19 CNS, in the assay on SN12C renal, with IGROV1 ovarian, in the assay with SF-268 CNS and in the assay with SF-295 CNS was more than 100 µM throughout. For the same molecule, the TGI with SR leukemia was 67 µM; with RPMI-8226 leukemia, 73 µM; with HOP-92 NSCLC, 41.3 µM; in the assay with K-562 leukemia, more than 100 µM.

As to `CCOC(=O)c1sc2[n+](c1C)C(=O)/C(=C/c1ccc([N+](=O)[O-])cc1)S2`, the TGI with SF-539 CNS is 54.7 µM; with SNB-19 CNS, more than 100 µM; in the assay with SN12C renal it was more than 100 µM; in the assay on SF-268 CNS it was 47.3 µM; with SF-295 CNS, 64.4 µM; with SR leukemia, 57.7 µM. The TGI in the assay with RPMI-8226 leukemia is 67.3 µM; in the assay on M14 melanoma it was more than 100 µM; in the assay with HOP-92 NSCLC, more than 100 µM; with K-562 leukemia, 83.4 µM.

For the molecule `O=[N+]([O-])c1ccc(C=NCC2CCCN3CCCCC23)cc1` (stereo not drawn), the TGI in the assay on SNB-19 CNS, with SN12C renal, in the assay with IGROV1 ovarian, with SF-268 CNS, in the assay on SF-295 CNS and in the assay on SR leukemia was more than 100 µM each time. In addition, the TGI in the assay with RPMI-8226 leukemia is 48.1 µM; in the assay on M14 melanoma, more than 100 µM; in the assay with HOP-92 NSCLC, more than 100 µM; in the assay with K-562 leukemia it was more than 100 µM.

On to `C=C1C(=O)O[C@H]2[C@@H](O)[C@H](C)CCC[C@]3(C)O[C@H]3CC[C@@]3(C)O[C@@H]3C[C@@H]12`, for which the TGI was determined as 13.3 µM with SF-539 CNS; 27.7 µM in the assay with SNB-19 CNS; 13.2 µM with SN12C renal; 12.1 µM with IGROV1 ovarian; 14.9 µM with SF-268 CNS; 15.6 µM in the assay on SF-295 CNS. Moreover, the TGI is 5.99 µM in the assay on SR leukemia, 50 µM in the assay on RPMI-8226 leukemia, 12.4 µM in the assay with M14 melanoma and 3.25 µM in the assay with K-562 leukemia.

`CC[C@H]1C=CCC[C@@]2(C[C@@H]3CC[C@H]4[C@@H](C(=O)OCCCCCCCCCCCCCCCC(=O)N(CCCN)C[C@@H](O)CCN)[C@@]5(CCC[C@@H](C)O5)NC(=[N+]34)N2)O1`: the TGI in the assay on SF-539 CNS came out at 2.78 µM; with SN12C renal, 9.33 µM; with IGROV1 ovarian it was 3.13 µM; in the assay with SF-268 CNS, 3.45 µM; with SF-295 CNS, 3.68 µM; in the assay with SR leukemia, 3.78 µM. Moreover, the TGI in the assay with RPMI-8226 leukemia was determined as 2.53 µM; with M14 melanoma, 3.82 µM; in the assay with HOP-92 NSCLC it was 4.1 µM; with K-562 leukemia, 3.18 µM.

As to `CC1(C)C2CC(=O)C1(C)C(OCc1ccccc1)C2` (stereo not drawn), the TGI in the assay on SF-539 CNS, in the assay with SNB-19 CNS, in the assay on SN12C renal, in the assay on IGROV1 ovarian, in the assay with SF-268 CNS and in the assay on SF-295 CNS was more than 100 µM in each case. Further, the TGI is 81.1 µM in the assay on SR leukemia, more than 100 µM with RPMI-8226 leukemia, 71.3 µM in the assay with M14 melanoma and 77.6 µM in the assay on K-562 leukemia.
